Values belong to the compound of their own block, whether it stands above or below them.
Columns and labels:
[1] = tested on: HCT116 wild type (WT) cancer cells; test: Inhibition of cell proliferation, low cell density IC50 assay; assay type: cell-based; details: Homo sapiens, HCT-116; 4 hour drug exposure, washing and regrowth for 5 days
Protocol: (§1) IC50 values were determined as the concentration of prodrug required to inhibit cell growth by 50% of untreated controls following 4 hour drug exposure, with washing and regrowth for 5 days. WT:NfsA ratios were determined as the WT IC50/NfsA IC50.

[2] = tested on: HCT116 cells overexpressing the nitroreductase NfsA from E. coli; test: as above; assay type: cell-based, human; details: for IC50: Homo sapiens, HCT-116, 4 hour drug exposure, washing and regrowth for 5 days; for WT:NfsA: WT IC50/NfsA IC50
Protocol: as §1

[3] = tested on: HCT-116 cells stably over-expressing cytochrome P450 reductase (CYPOR); test: Flow cytometry of metabolism and binding (EF5 antibody); assay type: cell-based, human; details: 2 h
Protocol: FIG. 4 illustrates the results of a second independent flow cytometry analysis of compound 15 and 93 metabolism and binding in wild-type HCT-116 cells, HCT-116 cells stably over-expressing cytochrome P450 reductase (CYPOR), a human one-electron reductase known to metabolise nitroheterocyclic and nitroaromatic compounds, or HCT-116 cells stably expressing the bacterial nitroreductase E. coli NfsA. 1×10^6HCT-116 cells were seeded in 6 well plates underaerobic conditions (21% O2, 5% CO2). After 2 h incubation, drug free control (wild-type HCT-116, foreground), 20 μM (wild-type HCT-116, second plot), 100 μM (wild-type HCT-116, third plot), 20 μM (HCT-116-CYPOR, forth plot), 100 μM (HCT-116-CYPOR, fifth plot) or 20 μM (HCT-116-NfsA, sixth plot) of compound 15 or 93 was added. After 2 h incubation cells were harvested and fixed with paraformaldehyde before being incubated overnight with 100 μl of 75 μg/ml EF5 CY5 conjugated antibody. Samples were then analysed on a Becton Dickinson FACscan flow cytometer.
FIG. 5 illustrates the results of flow cytometry analysis of HCT-116 cells stably over-expressing cytochrome P450 reductase (CYPOR), a human one-electron reductase known to metabolise nitroheterocyclic and nitroaromatic compounds. 1×10^6HCT-116-CYPOR cells were seeded in 6 well plates in aerobic, anoxic and 0.2% oxygen conditions designed to replicate the lower limit of pathological hypoxia observed in human tumours. After 2 h incubation, drug free control (foreground), 20 μM (middle) or 100 μM (background) of compound 15 or 67 was added. After 2 h incubation cells were harvested and fixed with paraformaldehyde before being incubated overnight with 100 μl of 75 μg/ml EF5 CY5 conjugated antibody. Samples were then analysed on a Becton Dickinson FAC scan flow cytometer.
FIG. 6 illustrates the results of flow cytometry analysis of compound 15 and 93 metabolism and binding in wild-type HCT-116 cells and HCT-116 cells stably over-expressing cytochrome P450 reductase (CYPOR), a human one-electron reductase known to metabolise nitroheterocyclic and nitroaromatic compounds. 1×10^6 HCT-116 cells were seeded in 6 well plates underanoxic conditions. After 2 h incubation, drug free control (wild-type HCT-116, foreground), 20 μM (wild-type HCT-116, second plot), 100 μM (wild-type HCT-116, third plot), 20 μM (HCT-116-CYPOR, forth plot) or 100 μM (HCT-116-CYPOR, fifth plot) of compound 15 or 93 was added. After 2 h incubation cells were harvested and fixed with paraformaldehyde before being incubated overnight with 100 μl of 75 μg/ml EF5 CY5 conjugated antibody. Samples were then analysed on a Becton Dickinson FACscan flow cytometer.

[4] = tested on: nfsA expressing HCT116 cells; details: 0.7 mM-hr cold EF5; cited from earlier work
[5] = cited from earlier work
NfrA (B.s) = biological target: T1, NfrA (B.s) (Bacillus subtilis, UniProt P39605); test: Initial rate of metabolism by purified recombinant bacterial nitroreductase (NADPH consumption, UV/Vis); assay type: biochemical; details: compound 500 μM, NADPH 200 μM, 10 mM Tris-Cl pH 7.0; μmol NADPH consumed per mg enzyme per minute
T1 construct: made in house
T1 sequence (P39605 whole entry): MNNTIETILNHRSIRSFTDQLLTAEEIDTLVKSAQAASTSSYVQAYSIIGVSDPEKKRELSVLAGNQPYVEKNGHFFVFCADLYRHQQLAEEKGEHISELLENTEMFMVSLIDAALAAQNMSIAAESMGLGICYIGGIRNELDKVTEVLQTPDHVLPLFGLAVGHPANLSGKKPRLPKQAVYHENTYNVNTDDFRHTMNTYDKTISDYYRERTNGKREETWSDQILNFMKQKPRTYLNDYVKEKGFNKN
Protocol: (§2) The relative initial rates of reductive metabolism of the nitro moiety of test compounds by bacterial nitroreductase's can be measured experimentally by incubating the test compound at near-saturating concentration (determined empirically) with the purified recombinant bacterial nitroreductase enzymes in the presence of NADPH co-factor. UV/Vis spectroscopy is used to measure consumption of the co-factor, indicating metabolism of the test compound by the nitroreductase.
(§3) Compounds 67, 93 and 97 (500 μM) were added to NADPH (200 μM) in 10 mM Tris-Cl pH 7.0. Reactions were initiated by enzyme addition (between 5 and 20 μg per reaction). Rates represent μmol of NADPH consumed per mg enzyme added per minute.

NfsA (E.c) = biological target: T2, NfsA (E.c) (Escherichia coli, UniProt P17117); test: as above; assay type: biochemical; details: compound 500 μM, NADPH 200 μM, 10 mM Tris-Cl pH 7.0; μmol NADPH consumed per mg enzyme per minute
T2 construct: made in house
T2 sequence (P17117 whole entry): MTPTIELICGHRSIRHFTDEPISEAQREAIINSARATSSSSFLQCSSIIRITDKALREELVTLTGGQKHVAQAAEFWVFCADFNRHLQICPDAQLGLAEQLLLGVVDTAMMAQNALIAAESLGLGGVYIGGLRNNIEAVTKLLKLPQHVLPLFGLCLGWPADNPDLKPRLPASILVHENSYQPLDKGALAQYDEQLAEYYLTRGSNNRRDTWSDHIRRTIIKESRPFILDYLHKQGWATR
Protocol: as §2, §3

NfsB (E.c) = biological target: T3, NfsB (E.c) (Escherichia coli, UniProt P38489); test: as above; assay type: biochemical; details: compound 500 μM, NADPH 200 μM, 10 mM Tris-Cl pH 7.0; μmol NADPH consumed per mg enzyme per minute
T3 construct: made in house
T3 sequence (P38489 whole entry): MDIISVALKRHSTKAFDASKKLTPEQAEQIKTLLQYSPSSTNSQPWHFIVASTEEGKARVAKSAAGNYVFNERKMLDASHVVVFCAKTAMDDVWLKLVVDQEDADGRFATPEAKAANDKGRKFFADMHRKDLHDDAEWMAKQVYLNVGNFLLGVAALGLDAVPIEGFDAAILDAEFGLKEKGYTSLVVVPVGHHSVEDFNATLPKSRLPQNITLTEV
Protocol: as §2, §3

YcnD (B.s) = biological target: T4, YcnD (B.s) (Bacillus subtilis, UniProt P94424); test: as above; assay type: biochemical; details: compound 500 μM, NADPH 200 μM, 10 mM Tris-Cl pH 7.0; μmol NADPH consumed per mg enzyme per minute
T4 construct: made in house
T4 sequence (P94424 whole entry): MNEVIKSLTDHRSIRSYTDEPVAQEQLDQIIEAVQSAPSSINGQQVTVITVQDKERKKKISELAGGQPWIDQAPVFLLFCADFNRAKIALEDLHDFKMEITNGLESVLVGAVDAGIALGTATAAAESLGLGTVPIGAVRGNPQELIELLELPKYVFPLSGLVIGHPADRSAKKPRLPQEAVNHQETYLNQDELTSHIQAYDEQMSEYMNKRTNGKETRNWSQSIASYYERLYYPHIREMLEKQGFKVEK
Protocol: as §2, §3

[6] = tested on: NTR over-expressing E. coli SOS-R2; test: Growth Inhibition assay in 58-membered NTR over-expression library; assay type: cell-based, Escherichia coli; details: 4 h incubation
[7] = tested on: bacterial nitroreductase over-expressing E. coli strains; test: IC50 (turbidity) in selected NTR over-expressing library strains; assay type: cell-based, Escherichia coli; details: 4 h post-challenge, serial dilution
Protocol: FIG. 2.3 illustrates the IC50 of compound 67 for selected NTR library strains (i.e. the concentration of compound 67 that yielded only 50% turbidity relative to an unchallenged control 4 h post-challenge, in replicate cultures across a serial dilution of compound 67). The strains selected were all those observed to have SOS activity above the empty plasmid control (“Empty”) in response to challenge with compound 67 as illustrated in FIG. 2(B), plus NfsB (E.c) as a negative control. For the IC50 assays, 100 μl of overnight cultures were used to inoculate 2 ml M63 minimal medium supplemented with 100 μg·ml^−1 ampicillin and 50 μM IPTG and incubated at 30° C., 200 rpm for 3.5 h. 40 μL aliquots from each culture were then added to individual wells of a sterile 384 well plate, each already containing 40 μl of ampicillin and IPTG-supplemented M63 medium and a dilution series of compound 67 as indicated on the X-axis of panel A. A. Raw growth curves. Each NTR over-expression strain was tested at least in duplicate (independent replicates), with the exception of NfsB (E.c), which was only measured once. Culture turbidity was monitored by optical density at 600 nm 4 h post-challenge. B. IC50 values calculated by comparison of the challenged cells with the unchallenged control for each strain, after subtracting the initial absorbance values (t=0 h), using SigmaPlot 10.0 (Systat Software Inc., Richmond, Calif.). Errors are 1 standard error of the mean (SEM).
(§4) FIG. 2.4 illustrates the IC50 of compound 93 for selected NTR library strains. […] B. IC50 values calculated by comparison of the challenged cells with the unchallenged control for each strain, after subtracting the initial absorbance values (t=0 h), using SigmaPlot 10.0 (Systat Software Inc., Richmond, Calif.). […]
as §4, with “2.5” for “2.4”, “97” for “93”

[8] = tested on: human solid tumour xenograft NCI-H1299 (WT); test: Hypoxia-dependent binding by ex vivo flow cytometry with pimonidazole co-staining; assay type: in vivo, NIH-III nude mice; details: 60 mg/kg i.p.; tumours excised after 120 minutes, single cell suspension
Protocol: FIG. 11 illustrates the absence of hypoxic-dependent binding of compound 67 and compound 93 by flow cytometry in the human solid tumour xenograft NCI-H1299, with reference to hypoxia staining by compound 15 and pimonidazole (Hypoxyprobe™) as internal standards (positive controls). NCI-H1299 WT tumours were inoculated subcutaneously onto the flank of NIH-III nude mice. When the mixed tumours reached approximately 800 mm^3, mice were dosed i.p. with 60 mg/kg of pimonidazole, and 60 minutes later dosed with either 60 mg/kg of compound 15, or 60 mg/kg of compound 67, or 60 mg/kg of compound 93. After 120 minutes the tumours were excised and enzyme digested to form a single cell suspension before fixation in ice cold 80% ethanol. Single cell immunodetection of bound adducts of compounds was performed using a monoclonal antibody (Mab1, hybridoma clone 4.3.11.3) conjugated to Alexa-488 (Ex/Em 499/519; green) for the detection of pimonidazole adducts, and monoclonal antibody ELK3-51 directly conjugated to the fluorophore CY5 (Ex/Em 650/670 nm; red) for detection of adducts formed by compound 15 or compound 67 or compound 93. The ex-vivo tumour cell samples were analysed on a Becton Dickinson FACscan flow cytometer using FACS Diva software. Integrated fluorescence measurements were recorded for 10,000 single non-debris events. Fluorescence emission was monitored at 530 nm±20 and 670-700 nm for detection of Alexa-488 and CY5 conjugated monoclonal antibodies, respectively.

Compound: O=C(Cn1ccnc1[N+](=O)[O-])NCC(F)(F)C(F)(F)F [Compound 15, 2-(2-nitro-1H-imidazol-1-yl)-N-(2,2,3,3,3-pentafluoropropyl)acetamide]
IC50 [1]: 2270 µM
IC50 [2]: 1 µM
WT:NfsA [2]: 2270
Metabolism and binding by FACS, HCT-116-CYPOR cells (FIG. 4) ([3]; 20 μM and 100 μM, aerobic conditions): minimal metabolism and binding
Metabolism and binding by FACS, HCT-116-CYPOR cells, anoxia (FIG. 6) ([3]; 20 μM and 100 μM, anoxic conditions): significant dose-dependent and reductase dependent increases in metabolism and binding
Metabolism and binding by FACS, HCT-116-CYPOR cells, 0.2% oxygen (FIG. 5) ([3]; 20 μM or 100 μM, 0.2% oxygen): Significant dose-dependent increases in metabolism
Metabolism and binding by FACS, HCT-116-CYPOR cells, aerobic (FIG. 5) ([3]; 20 μM or 100 μM, aerobic): negligible metabolism and binding
Metabolism and binding by FACS, HCT-116-CYPOR cells, anoxia (FIG. 5) ([3]; 20 μM or 100 μM, anoxia): Significant dose-dependent increases in metabolism
Loss of viability for nfsA expressing HCT116 cells [4]: 90%
Concentration-time achieved in human plasma ([5]; cold EF5 9 mg/kg): 0.89 mM-hr
Plasma AUC ([5]; dose of 21 mg/kg injected): 2 mM-hr
Tolerability of injected dose ([5]; dose of 21 mg/kg): safely injected without any toxicities

IC50 [1]: > 12500 µM
IC50 [2]: 16 µM
Compound: O=[N+]([O-])c1nccn1Cc1cn(C(CO)CF)nn1 (stereo not drawn) [Compound 19, reference compound]
WT:NfsA [2]: >781

Compound: O=[N+]([O-])c1cn(Cc2cn(C(CO)CF)nn2)cn1 (stereo not drawn) [Compound 97, 3-fluoro-2-(4-((4-nitro-1H-imidazol-1-yl)methyl)-1H-1,2,3-triazol-1-yl)propan-1-ol]
Rate of metabolism by NfrA (B.s) (NfrA (B.s)): 3.9 µmol/min/mg
Rate of metabolism by NfsA (E.c) (NfsA (E.c)): 4.3 µmol/min/mg
Rate of metabolism by NfsB (E.c) (NfsB (E.c)): 1.4 µmol/min/mg
Rate of metabolism by YcnD (B.s) (YcnD (B.s)): 6.2 µmol/min/mg
IC50 [1]: > 12500 µM
IC50 [2]: 178 µM
WT:NfsA [2]: >70
Reductive metabolism at the nitro moiety by NTR library members (NfsA and NfsB families) ([6]; 400 μM compound 67, 130 μM compound 93, 800 μM compound 97): reductively metabolised at the nitro moiety by the majority of the NfsA and NfsB families tested
Metabolism by members of the NemA nitroreductase family ([6]; 800 μM compound 97): Modest metabolism
Inhibition of bacterial cell growth in NTR over-expressing strains compared to controls [7]: Inhibition of bacterial cell growth was selectively observed
melting point: 126 to 129 °C

Compound: O=[N+]([O-])c1nccn1CC(O)CN1CCCCC1 (stereo not drawn) [pimonidazole, reference compound]
Hypoxia-dependent binding in NCI-H1299 WT tumours, flow cytometry (FIG. 11) [8]: hypoxic cells that are detected by pimonidazole adduct retention
